Measured values taken from US8541645B2, “Animal model for cigarette-smoke-induced atherosclerosis and related methods” (University of Calcutta, priority 2009, dated 2013).

How the values were obtained:
[1] = test system: CS-induced atherosclerosis in guinea pig aorta; assay: Cigarette-smoke-induced atherosclerosis in guinea pig aorta (H&E and Oil red O staining of aortic sections); format: in vivo; conditions: dietary supplementation of vitamin C 5 mg/day in addition to CS exposure; aortic sections stained with H&E or Oil red O (FIG. 3)
Description: Two to six, preferably three to four, month old male guinea pigs weighing between about 350 to about 450 grams (g) are used. All animals are maintained on a vitamin C-free diet for 7 days in order to minimize the in vivo levels of vitamin C in plasma and tissues. After 7 days of vitamin C deprivation, the guinea pigs are given a dietary supplementation of about 1 milligram (mg) of vitamin C per day (1 mg vitamin C/day) to prevent the onset of scurvy. (It is known that a dose of 0.8 mg vitamin C/day is sufficient to maintain guinea pigs without the development of scurvy.) Thereafter, the guinea pigs are subjected to cigarette smoke exposure (3 cigarettes per animal per day (3 cigarettes/animal/day) with 2 puffs per cigarette (2 puffs/cigarette)). Two puffs per cigarette indicate that the burning of a cigarette is divided into two halves. In each half, animals are exposed to cigarette smoke for a period of 1 minute (min.). There is an interval of 1 min. between these two halves. During this interval, animals are exposed to normal atmospheric air. Likewise, 3 puffs/cigarette would indicate that the burning of a cigarette is divided into three approximately equal parts with two intervals in between. […]

[2] = test system: scurvy; conditions: dietary; cited from earlier work

In the case of `O=C1O[C@H]([C@@H](O)CO)C(O)=C1O` [vitamin C, L-ascorbic acid], the “effect on CS-induced atherogenic changes in guinea pig aorta” value [1] is listed as “prevents CS-induced atherogenic changes” and the “dose sufficient to maintain guinea pigs without the development of scurvy” value [2] is listed as 0.8 mg vitamin C/day.
